Test results as given in patent US20210121418A1, “TREATMENT OF PROTEINURIA” (SYNACT PHARMA APS, priority 2018, published 2021).

Assays:
[1] = test system: Passive Heymann Nephritis; test: Passive Heymann Nephritis, experiment 1 (ip dosing); format: in vivo, rat; settings: for FEAlb (fractional albumin excretion) reduced by: 10 mg/kg ip once daily; for proteinuria compared to control rats (vehicle): day 28 and day 42
Experimental: Passive Heymann Nephritis was introduced to Male Sprague-Dawley rats by administration of anti-Fx1A serum (PTX-002S, Probetex, San Antonio, Tex., USA) Probetex, lot 169-6H) on study day 0 (1 ml serum) and on study day 7 (0.25 serum) into the jugular vein by slow injection during isoflurane anaesthesia. […] Pharmacological intervention with control compound or test compound was initiated on day 14.
In one experiment (experiment 1) test compound 1 dissolved in isotonic saline was given once daily by intraperitoneal (ip) injections at a dose of 10 mg/kg (n=12) with animals treated with isotonic saline injections as controls (n=12).
In experiment 1 twenty-four hours urine collection were performed at three occasions, at day 14 following induction of nephritis, i.e. at the time point where pharmacological intervention was initiated, at day 28 and at day 42 following induction of nephritis. For urine collection the rats were placed in metabolic cages followed by a blood sample for measurement of plasma concentrations of creatinine and albumin. Likewise, the urine concentration of creatinine and albumin were determined and so was the volume of the 24-hours urine production.
The blood sample was taken from the abdominal vein during pentobarbital (0.2-0.3 mL/rat ip; Dolethal, Vetoquinol via Centravet, Lapalisse, France). The collected blood was transferred into tubes coated with EDTA and centrifuged (10 minutes, 1000 g, 4° C.) for plasma collection. Plasma samples were stored at −80° C. until quantification of creatinine and Albumin.
Albumin and creatinine in urine and plasma were quantified using a ABX Pentra 400 Clinical Chemistry analyzer (HORIBA).
Albumin excretion rate was determined as follows:
24 hours urine production×concentration of Albumin in urine.
Fractional Albumin excretion was determined as follows:
((Urine concentration of […]×24 hours urine production)/plasma concentration of albumin)/Creatinine Clearance×100
All data presented as mean±Standard error of mean (SE). Statistical analyses were made by standard unpaired t-test, with p<0.05 considered statistical significant

[2] = test system: Passive Heymann Nephritis; test: Passive Heymann Nephritis, experiment 2 (oral gavage vs ACTH(1-24)); format: in vivo, rat; settings: 4 weeks treatment
Experimental: Passive Heymann Nephritis was introduced to Male Sprague-Dawley rats by administration of anti-Fx1A serum (PTX-002S, Probetex, San Antonio, Tex., USA) Probetex, lot 169-6H) on study day 0 (1 ml serum) and on study day 7 (0.25 serum) into the jugular vein by slow injection during isoflurane anaesthesia. […] In another experiment (experiment 2) test compound 1 was given once daily by oral gavage. […] In this experiment treatment effect of test compound 1 was compared to the effect of ACTH(1-24) as ACTH from the literature has been described to have treatment effects on proteinuria in the applied experimental model. […] Likewise, the urine concentration of creatinine and albumin were determined and so was the volume of the 24-hours urine production. The blood sample was taken from the abdominal vein during pentobarbital (0.2-0.3 mL/rat ip; Dolethal, Vetoquinol via […], France). The collected blood was transferred into tubes coated with EDTA and centrifuged (10 minutes, 1000 g, 4° C.) for plasma collection. Plasma samples were stored at -80° C. until quantification of creatinine and Albumin. […] Statistical analyses were made by standard unpaired t-test, with p<0.05 considered statistical significant

[3] = test system: CYP1A2; test: CYP1A2 induction in human hepatocyte; format: in vitro ADME; settings: 10 μM
[4] = Effect of meal timing and apple juice on absorption of the suspension; format: in vivo
Experimental: The effect of food intake on the absorption of AP1189 in the current suspension formulation has not been systematically evaluated. However, it has been shown that the plasma profile of the compound, whether the first meal was served 1 hour or 4 hours post-dosing in the fasting state, is very similar.

[5] = test system: MC1R; settings: cited from earlier work
[6] = test system: MC3R; settings: cited from earlier work
[7] = test system: macrophages; settings: cited from earlier work
[8] = test system: melanocytes; settings: cited from earlier work
[9] = test system: peritonitis; settings: oral; cited from earlier work
[10] = test system: experimental inflammatory arthritis; settings: in vivo; cited from earlier work
[11] = clinical; settings: male, human, plasma
[12] = clinical; settings: human, plasma, oral, 200 mg
[13] = Phase I Part I, single ascending dose, oral suspension (PK and safety)
[14] = Phase I Part IV, 14-day repeated dose, oral suspension (PK and safety); settings: for C Max (mean +/− SD, N = 9) / C Trough (Mean +/− SD, N = 9): steady conditions

NC(N)=N/N=C/C=C/c1cccn1-c1ccccc1[N+](=O)[O-] [AP1189, (E)-N-trans-{3-[1-(2-nitrophenyl)-1H-pyrrol-2-yl]-allylidene}-aminoguanidium acetate]
reduction in albumin excretion rate ([1]; 10 mg/kg ip once daily from day 14, day 28): 31±8% | reduction in albumin excretion rate ([1]; 10 mg/kg ip once daily from day 14, day 42): 48±10% | FEAlb (fractional albumin excretion) reduced by ([1]; day 28): 48±5% | FEAlb (fractional albumin excretion) reduced by ([1]; day 42): 45±11% | proteinuria compared to control rats (vehicle) [1]: significantly reduces proteinuria | proteinuria compared to control rats (vehicle) ([1]; listed as test compound 1): significant reduction in proteinuria | reduction in albumin excretion rate ([1]; day 482 as printed in FIG. 1 legend): 48±10% | GFR (creatinine clearance) ([2]; 20 mg/kg oral gavage): 3.12 ± 0.14 mL/min | fraction albumin excretion (FEAlb) ([2]; 20 mg/kg oral gavage): 0.045±0.04% | fraction albumin excretion (FEAlb) ([2]; 40 mg/kg oral gavage): 0.35±0.05% | CYP1A2 induction [3]: signal for CYP1A2 induction has been observed | absorption with a glass of apple juice immediately after dosing [4]: does not reduce the absorption | plasma profile, first meal 1 hour or 4 hours post-dosing ([4]; dosing in the fasting state): very similar | ERK1/2 phosphorylation [5]: cause ERK1/2 phosphorylation | canonical cAMP generation [5]: does not induce canonical cAMP generation | ERK1/2 phosphorylation [6]: cause ERK1/2 phosphorylation | canonical cAMP generation [6]: does not induce canonical cAMP generation | cytokine release [7]: reduce cytokine release | melanogenesis [8]: no melanogenesis was induced | anti-inflammatory actions in peritonitis [9]: elicits anti-inflammatory actions in peritonitis and accelerated the resolution phase | macroscopic and histological parameters of joint disruption [10]: significant reduction of macroscopic and histological parameters of joint disruption | Vd/F ([11]; oral): 556 to 784 L | half-life ([11]; oral): ~20 h | Tmax ([11]; po): 1 to 4 h | Cmax [12]: ≤ 900 ng/mL | Cmax and AUCs, female compared to male subjects ([13]; 400 mg): slightly increased | apparent volume of distribution, female compared to male ([13]; 400 mg): similar | exposure at maximum administrated dose above expected therapeutic exposure level ([13]; 800 mg): more than 10 × | increase of ALT above the normal upper value ([13]; 400-800 mg): up to 1.6 | TEAEs considered related to the study treatment ([13]; after administration of 200 to 800 mg): 21 events | apparent clearance ([13]; female subjects, 400 mg): 17.26 L/h | QTcF and other cardiac parameters, 24-hours Holter ECG ([13]; in vivo): No AP1189 associated increases in QTcF | changes in vital signs ([13]; in vivo): No treatment-related changes in vital signs | frequency of related gastrointestinal TEAEs vs dose ([13]; in vivo): increased with the dose | subjects with isolated increases in aminotransferases ([13]; male subjects on active IMP, 400, 600, 800 mg): 4 subjects | inter-individual variability for Cmax and AUCs ([13]; male subjects, 50-800 mg): < 36% | severe or serious adverse events ([13]; single doses 15-800 mg): No severe AEs nor serious AEs were reported | C Max (mean +/− SD, N = 9) ([14]; 50 mg once daily): 180 ± 38 ng/mL | C Trough (Mean +/− SD, N = 9) ([14]; 50 mg once daily): 46 ± 14 ng/mL | C Max (mean +/− SD, N = 9) ([14]; 100 mg once daily): 427 ± 76 ng/mL | C Trough (Mean +/− SD, N = 9) ([14]; 100 mg once daily): 100 ± 25 ng/mL | exposure at maximum administrated dose above expected therapeutic exposure level ([14]; 200 mg): 5 × | exposure based on Cmax vs expected therapeutic range ([14]; 200 mg, group): ≤ 5 × | exposure based on Cmax vs expected therapeutic range ([14]; 200 mg, individual with the highest exposure): more than 7 × | C Trough (Mean +/− SD, N = 9) ([14]; 300 mg once daily): 186 ± 45 ng/mL | severe or serious adverse events ([14]; 50, 100 or 200 mg once daily, 14 days): No severe AEs nor serious AEs were reported | steady state achieved ([14]; Cohort 1, 50 mg once daily): 7 days | peak increase compared to cohort 1 ([14]; Cohort 2, 100 mg vs 50 mg): approximately 2 fold | subjects with isolated increases in aminotransferases ([14]; Cohort 3 (200 mg), treated with active): 3 subjects | time Cmax was reached post dosing ([14]; Cohort 3, 200 mg once daily): 1 to 2 h | safety profile ([14]; for 50 mg or 100 mg doses for four weeks): good safety profile | TEAEs considered possibly related to the study treatment ([14]; gastrointestinal, 50 mg and 200 mg dose levels): 4 events | QTcF, repeated standard 12 lead safety ECG ([14]; in vivo): No individual QTcF clinically significant values were observed
